Results on two molecules are retold here after US20150057305A1, “PHARMACEUTICAL COMPOSITION” (SHANGHAI HOTMED SCIENCES CO., LTD., priority 2012, published 2015).

SMILES strings stand for the structures.

For data set [1] the following is noted: dog, in vivo; cited from earlier work.
Data set [2] can be described thus: Distribution coefficient (n-octanol-water) shake flask method GB/T 21853-2008. Particulars: in water. Format: physicochemical.
The conditions of data set [3]: cited from earlier work.
The next data set in a line: Solubility in water. Format: physicochemical.

For `CC[C@@]1(O)C(=O)OCc2c1cc1n(c2=O)Cc2cc3c([N+](=O)[O-])cccc3nc2-1` [Example 9-NC, 9-nitro-camptothecin], in data set [1], the oral bioavailability entry is listed as “less than 6%”.
For `CC[C@@]1(OC(=O)OCC(C)C)C(=O)OCc2c1cc1n(c2=O)Cc2cc3c([N+](=O)[O-])cccc3nc2-1` [the compound of formula I], the “Lg Po/w” value in data set [2] is given as 7.31. Moreover, the “stability in human plasma” value in data set [3] is listed as “good stability”. For the same molecule, the solubility in water entry in the data set “Solubility in water” is given as “almost insoluble in water”.
